Laboratory results as given in patent US10689352B2, “Solid state forms of trisodium valsartan: sacubitril” (Teva Pharmaceuticals International GMBH, priority 2015, dated 2020).

Tests used:
[1] = Storage stability (chemical and polymorphic); assay type: physicochemical
Text: A crystalline form according to Paragraph 2, which is characterized by an X-ray powder diffraction pattern having peaks at 5.8, 7.3, 12.9, 15.9, 16.5 and 18.6 degrees two theta±0.2 degrees two theta and also having any one, any two, any three or more additional peaks selected from: 4.3, 9.4, 10.0, 10.9 and 14.7 two theta±0.2 degrees two theta. • 4. A crystalline form according to Paragraph 2, which is characterized by the X-ray powder diffraction pattern having peaks at 7.3, 16.5, 9.4, 10.9 and 14.7 two theta±0.2 degrees two theta and also having any one, any two, any three or more additional peaks selected from: 4.3, 5.8, 10.0, 12.9, 15.9 and 18.6 two theta±0.2 degrees two theta and optionally further characterized by an FTIP spectrum as depicted in FIG. 6. • 5. A crystalline form according to Paragraph 1 or Paragraph 2, which is characterized by the X-ray powder diffraction pattern having peaks at 4.3, 5.8, 7.3, 9.4, 10.0, 10.9, 12.9, 14.7, 15.9, 16.5, and 18.6 two theta±0.2 degrees two theta±0.2 degrees two theta. • 6. A crystalline form according to Paragraph 5, which is further characterized by X-ray powder diffraction d-spacings at: 20.341, 15.261, 12.068, 9.397, 8.826, 8.092, 6.863, 6.024, 5.583, 5.353 and 4.773 Å±0.1 Å. • 7. A crystalline form according to any of Paragraphs 1, 2, 3 or 4, further characterized by an X-ray powder diffraction pattern having one, two, three, four five, or more than 5 additional peaks selected from: 4.3, 5.0, 5.5, 5.8, 7.3, 8.5, 8.9, 9.4, 10.0, 10.9, 11.6, 12.9, 13.7, 13.9, 14.7, 14.8, 15.1, 15.3, 15.9, 16.5, 17.3, 17.6, 18.6, 19.1, 19.5, 20.3, 21.2, 21.9 and 23.1 degrees two theta±0.2 degrees two theta. • 8. A crystalline form according to any of Paragraphs 1, 2, 3, 4, 5, 6 or 7, which is characterized by an X-ray powder diffraction pattern having peaks at: 4.3, 5.0, 5.5, 5.8, 7.3, 8.5, 8.9, 9.4, 10.0, 10.9, 11.6, 12.9, 13.7, 13.9, 14.7, 14.8, 15.1, 15.3, 15.9, 16.5, 17.3, 17.6, 18.6, 19.1, 19.5, 20.3, 21.2, 21.9 and 23.1 degrees two theta±0.2 degrees two theta. • 9. A crystalline form according to Paragraph 8, which is further characterized by the absence of any peak (defined as relative intensity I/Io of less than 1%) between any of two neighboring peaks. • 10. A crystalline form according to any of Paragraphs 1, 2, 3, 4, 5, 6, 7, 8 or 9, further characterized by an X-ray powder diffraction pattern as depicted in FIG. 1 or FIG. 14 and/or a solid state ^13C NMR as depicted in FIG. 5. • 11. A crystalline form according to any of Paragraphs 1, 2, 3, 4, 5, 6, 7, 8, 9 or 10, further characterized by a DSC as depicted in FIG. 2. • 12. A crystalline form according to any of Paragraphs 2-11 further characterized by a solid state ^13C NMR spectrum having peaks at 176.8, 161.9, 141.1, 139.5, 138.6, 137.2, 129.3, 128.7, 126.3, 124.9, 64.2, 60.6, 47.5, 46.1, 40.1, 39.0, 38.1, 34.3, 32.7, 29.8, 28.2, 22.4, 20.2, 17.8, 16.5, 13.7, 11.7 ppm±0.2 ppm. • 13. […] A crystalline form according to any of Paragraphs 1, 2, 3, 4, 5, 6, 7, 8, 9, 10, 11, 12, 13, 14 or 15, which is a hydrate, preferably wherein the crystalline form contains from 5.2 to 5.7 wt % water. • 17. A crystalline form according to any of Paragraphs 1, 2, 3, 4, 5, 6, 7, 8, 9, 10, 11, 12, 13, 14, 15 or 16, comprising agglomerates having spherical morphology, preferably wherein: at least 50%, at least 60%, at least 70%, at least 80% or at least 90% of the agglomerates have spherical morphology, preferably wherein the circularity of at least 50% (preferably: at least 60%, at least 70%, at least 80% or at least 90%) of the particles on a volume basis is: greater than or equal to about 0.85, about 0.86 to 1, about 0.88 to about 0.98, about 0.90 to about 0.96, about 0.92 to about 0.96. • 18. […] A process according to any of Paragraphs 18 or 19, wherein the solution in step (i) is prepared by heating, preferably to a temperature of about 80° C. to about 150° C., about 90° C. to about 130° C. • 21. […]

[2] = Circularity (morphology) by image analysis, Morphologi G3; assay type: physicochemical; conditions: agglomerates, sieved through 300 μm, volume basis; e.g. as prepared according to Example 19
Text: As used herein, circularity refers to the ratio of the perimeter of a circle with the same area as the particle divided by the perimeter of the actual particle image. Circularity is preferably determined by measurement of the particles following sieving through a sieve having a pore size of 300 μm. The particles are preferably measured following analysis of photographs of the particles at an appropriate magnification (e.g. 2.5 to 5.0 times magnification). More particularly, the sample is analyzed using Morphologi G3 instrumentation. The collected data can be processed using image analysis. Circularity is a ratio of the perimeter of a circle with the same area as the particle divided by the perimeter of the actual particle image.
Sample was sieved through a sieve with pore size 300 μm. The sieved material was dispersed on the glass surface at 0.5 bar and then images were taken at 2.5-5.0× magnification using Morphologi G3 (Malvern). Collected data was processed using image analysis. Circularity is a ratio of the perimeter of a circle with the same area as the particle divided by the perimeter of the actual particle image.

[3] = characterized according to Carr RL, Chem Eng 1965
Experimental: Whole amount material was put in graduated cylinder. A graduated cylinder with the sample was attached to Erweka SVM tapped density tester and tapped with 1250 strikes. Volume of the powder is measured. Bulk density is measured as ratio between mass of sample (ms) and unsettled apparent volume (V0) of sample in graduated cylinder. Tap Density is measured as ratio between mass of sample (ms) and final tapped volume of sample (Vf). Compressibility index and Hausner ratio were calculated according to obtained results of bulk and tapped density.

Substance: trisodium valsartan:sacubitril [Form II]
- chemical and polymorphic stability ([1]; protected from moisture, stored at 25° C./60% RH): chemically and polymorphically stable
- chemical and polymorphic stability ([1]; protected from moisture, stored at 40° C./75% RH): chemically and polymorphically stable
- chemical and polymorphic stability ([1]; protected from moisture, stored at 50° C.): chemically and polymorphically stable
- chemical and polymorphic stability ([1]; protected from moisture, stored at 50° C./80% RH): chemically and polymorphically stable
- chemical and polymorphic stability ([1]; stored for 8 weeks at 25° C./60% RH): chemically and polymorphically stable
- chemical and polymorphic stability ([1]; stored for 8 weeks at 50° C.): chemically and polymorphically stable
- circularity (v0.5) [2]: greater than 0.85
- flow properties [3]: good-excellent
